Patent US12503485B2, “Human aminosterol ENT-03 compounds, related compositions comprising the same, and methods of using the same” (Enterin, Inc., priority 2019, dated 2025)

Legend:
[1] = Weight gain in growing male mice; type: in vivo; conditions: growing male mice about 25 g, similar dosing regimen
Method: In a second experiment, growing male mice, about 25 grams, were administered either compound following a similar dosing regimen. As in the previous experiment, both compounds affected weight gain.

[2] = Weight loss in male Swiss Webster mice, i.p. dosing; type: in vivo; conditions: male Swiss Webster mice about 50 g, i.p. 10 mg/kg every other day; for loss of starting body weight: by 27 days
From the text: Food was provided ad lib.

[3] = target: T1, PTPN6/SHP1 (Homo sapiens, UniProt P29350); assay: Phosphatase assay PTPN6/SHP1; type: biochemical; conditions: for IC50: Table 2B, read-out: Compound IC50 (M) PTPN6/SHP1
T1 construct: purchased Recation Biology Inc

[4] = target: T2, PTPRC/CD45 (Homo sapiens, UniProt P08575); assay: Phosphatase assay PTPRC/CD45; type: biochemical
T2 construct: purchased Recation Biology Inc
T2 sequence (P08575 26-1306): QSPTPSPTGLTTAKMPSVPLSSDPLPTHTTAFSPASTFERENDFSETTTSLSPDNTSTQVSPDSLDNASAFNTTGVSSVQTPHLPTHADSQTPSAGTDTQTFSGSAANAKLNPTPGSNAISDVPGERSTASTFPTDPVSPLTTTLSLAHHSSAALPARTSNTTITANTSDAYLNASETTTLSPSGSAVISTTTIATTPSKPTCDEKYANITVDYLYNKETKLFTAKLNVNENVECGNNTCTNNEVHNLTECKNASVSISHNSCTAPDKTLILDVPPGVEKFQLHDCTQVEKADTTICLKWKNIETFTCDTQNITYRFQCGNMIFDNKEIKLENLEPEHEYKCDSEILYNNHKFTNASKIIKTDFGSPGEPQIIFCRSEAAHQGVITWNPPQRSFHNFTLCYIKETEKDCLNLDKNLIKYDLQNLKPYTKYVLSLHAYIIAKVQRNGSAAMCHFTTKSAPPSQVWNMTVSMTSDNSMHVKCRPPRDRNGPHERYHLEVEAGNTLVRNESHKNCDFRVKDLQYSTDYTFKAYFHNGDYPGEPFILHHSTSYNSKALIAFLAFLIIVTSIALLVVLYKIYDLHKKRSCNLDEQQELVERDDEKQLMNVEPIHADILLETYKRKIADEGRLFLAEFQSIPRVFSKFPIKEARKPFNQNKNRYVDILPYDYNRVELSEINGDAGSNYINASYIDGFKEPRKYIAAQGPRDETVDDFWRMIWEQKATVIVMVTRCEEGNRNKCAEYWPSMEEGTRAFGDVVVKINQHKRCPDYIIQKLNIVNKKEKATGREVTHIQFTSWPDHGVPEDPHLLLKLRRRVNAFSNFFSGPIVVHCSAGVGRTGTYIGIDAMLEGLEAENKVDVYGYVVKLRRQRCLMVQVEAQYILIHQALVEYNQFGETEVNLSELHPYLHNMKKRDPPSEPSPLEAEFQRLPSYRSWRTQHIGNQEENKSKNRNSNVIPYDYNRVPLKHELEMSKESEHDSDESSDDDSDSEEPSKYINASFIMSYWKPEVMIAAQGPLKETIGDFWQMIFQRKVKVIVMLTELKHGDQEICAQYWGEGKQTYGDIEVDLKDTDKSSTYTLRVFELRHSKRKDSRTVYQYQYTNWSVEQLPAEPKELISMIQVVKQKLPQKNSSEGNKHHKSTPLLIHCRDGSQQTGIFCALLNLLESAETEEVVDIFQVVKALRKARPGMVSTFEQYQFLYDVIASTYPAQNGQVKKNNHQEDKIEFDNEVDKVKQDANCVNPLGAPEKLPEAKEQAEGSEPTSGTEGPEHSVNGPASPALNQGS

[5] = target: T3, PP1A (Homo sapiens, UniProt P62136); assay: Phosphatase assay PP1A (DiFMUP fluorescence); type: biochemical; conditions: for IC50: Table 2B, read-out: Compound IC50 (M) PP1A
T3 construct: purchased Recation Biology Inc

[6] = target: T4, PP1B (Homo sapiens, UniProt P62140); assay: Phosphatase assay PP1B (DiFMUP fluorescence); type: biochemical; conditions: for IC50: Table 2B, read-out: Compound IC50 (M) PP1B
T4 construct: purchased Recation Biology Inc

[7] = target: T5, PTPN2/TC-PTP (Homo sapiens, UniProt P17706); assay: Phosphatase assay PTPN2/TC-PTP; type: biochemical; conditions: for IC50: Table 2C, read-out: Compound IC50 (M) PTPN2/TC-PTP
T5 construct: purchased Recation Biology Inc
T5 sequence (P17706 1-415): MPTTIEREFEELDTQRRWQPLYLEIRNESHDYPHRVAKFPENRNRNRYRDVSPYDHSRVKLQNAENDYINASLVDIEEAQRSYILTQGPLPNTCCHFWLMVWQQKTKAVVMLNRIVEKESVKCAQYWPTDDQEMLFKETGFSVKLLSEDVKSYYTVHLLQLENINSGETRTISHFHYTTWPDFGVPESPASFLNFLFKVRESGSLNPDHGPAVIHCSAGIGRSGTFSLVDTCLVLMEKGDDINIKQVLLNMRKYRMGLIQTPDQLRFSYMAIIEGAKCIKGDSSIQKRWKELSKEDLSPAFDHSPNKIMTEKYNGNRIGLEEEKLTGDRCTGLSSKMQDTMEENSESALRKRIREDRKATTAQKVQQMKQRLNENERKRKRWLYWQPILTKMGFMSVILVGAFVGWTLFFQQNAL

[8] = target: T6, PTPN11/SHP2-FL (E76K) (Homo sapiens, UniProt Q06124, E76K); assay: Phosphatase assay PTPN11/SHP2-FL (E76K)
T6 sequence (Q06124 2-597 isoform Q06124-1 E76K): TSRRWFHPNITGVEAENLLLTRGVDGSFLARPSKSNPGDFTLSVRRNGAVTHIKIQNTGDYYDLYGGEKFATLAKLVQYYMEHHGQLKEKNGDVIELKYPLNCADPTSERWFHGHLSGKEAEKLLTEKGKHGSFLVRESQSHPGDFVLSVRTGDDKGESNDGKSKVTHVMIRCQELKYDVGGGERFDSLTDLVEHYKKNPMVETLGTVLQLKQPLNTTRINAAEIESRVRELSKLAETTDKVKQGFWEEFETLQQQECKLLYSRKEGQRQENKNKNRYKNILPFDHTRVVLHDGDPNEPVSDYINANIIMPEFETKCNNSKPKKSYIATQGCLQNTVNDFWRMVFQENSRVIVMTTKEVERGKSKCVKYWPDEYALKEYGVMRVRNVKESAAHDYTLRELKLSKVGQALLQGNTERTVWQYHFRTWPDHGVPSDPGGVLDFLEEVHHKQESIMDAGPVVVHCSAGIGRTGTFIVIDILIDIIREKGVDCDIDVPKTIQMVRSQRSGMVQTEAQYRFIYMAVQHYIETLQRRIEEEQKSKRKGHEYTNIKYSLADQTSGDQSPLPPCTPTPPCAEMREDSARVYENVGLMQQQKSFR

[9] = system: transcriptomes of the stomach, jejunum and ileum; type: in vivo; conditions: aged mice (78 weeks)

T3 sequence (P62136 whole entry): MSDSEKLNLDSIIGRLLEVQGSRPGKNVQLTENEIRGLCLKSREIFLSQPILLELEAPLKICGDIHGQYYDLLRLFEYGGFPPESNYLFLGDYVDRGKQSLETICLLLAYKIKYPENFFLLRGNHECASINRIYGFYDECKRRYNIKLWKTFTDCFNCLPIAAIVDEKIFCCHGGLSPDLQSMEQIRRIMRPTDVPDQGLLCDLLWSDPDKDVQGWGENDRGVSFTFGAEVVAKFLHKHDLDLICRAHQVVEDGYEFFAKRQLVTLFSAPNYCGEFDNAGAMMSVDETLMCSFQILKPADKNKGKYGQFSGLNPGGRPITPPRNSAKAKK
T1 sequence (P29350 whole entry): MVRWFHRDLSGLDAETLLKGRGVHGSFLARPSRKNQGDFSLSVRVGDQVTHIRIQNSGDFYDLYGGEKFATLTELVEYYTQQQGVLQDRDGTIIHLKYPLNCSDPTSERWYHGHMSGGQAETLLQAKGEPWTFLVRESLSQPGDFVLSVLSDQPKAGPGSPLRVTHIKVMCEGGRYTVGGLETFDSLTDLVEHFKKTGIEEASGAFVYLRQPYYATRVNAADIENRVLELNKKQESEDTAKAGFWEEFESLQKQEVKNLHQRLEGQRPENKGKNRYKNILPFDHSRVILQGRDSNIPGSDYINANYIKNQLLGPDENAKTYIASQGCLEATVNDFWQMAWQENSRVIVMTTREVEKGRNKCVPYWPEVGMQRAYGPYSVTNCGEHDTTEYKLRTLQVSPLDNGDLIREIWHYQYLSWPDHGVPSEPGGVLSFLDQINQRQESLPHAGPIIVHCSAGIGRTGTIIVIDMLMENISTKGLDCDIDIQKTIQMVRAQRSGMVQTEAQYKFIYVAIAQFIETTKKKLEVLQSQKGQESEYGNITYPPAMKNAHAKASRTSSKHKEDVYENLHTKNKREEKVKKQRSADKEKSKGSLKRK
T4 sequence (P62140 whole entry): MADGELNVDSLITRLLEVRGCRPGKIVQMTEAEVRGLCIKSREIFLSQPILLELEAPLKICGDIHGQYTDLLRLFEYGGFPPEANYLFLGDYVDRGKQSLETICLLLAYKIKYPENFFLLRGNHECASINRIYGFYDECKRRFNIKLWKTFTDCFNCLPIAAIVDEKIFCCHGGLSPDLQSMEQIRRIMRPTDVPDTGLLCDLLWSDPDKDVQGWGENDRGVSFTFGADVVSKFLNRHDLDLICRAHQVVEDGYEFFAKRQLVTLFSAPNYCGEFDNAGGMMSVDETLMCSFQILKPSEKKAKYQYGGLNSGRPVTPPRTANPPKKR

| SMILES | effect on growth, in words [1] | effect on weight, in words [2] | nadir of weight [2] [days] | recovery to the starting weight [2] [days] | loss of starting body weight [2] | activity at PTPN6/SHP1, in words [3] | IC50 [3] [M] | activity on PTPRC/CD45, in words [4] | IC50 [5] [M] | IC50 [6] [M] | IC50 [7] [M] | inhibition of PTPN11 (E76K), in words [8] | IC50 ([4]; Table 2B, read-out: Compound IC50 (M) PTPRC/CD45) [M] | activity at PP1A, in words [5] | activity at PP1B, in words [6] | activity at PTPN2, in words [7] | genes increased upon treatment that decreased in expression with ageing [9] [genes] |
| --- | --- | --- | --- | --- | --- | --- | --- | --- | --- | --- | --- | --- | --- | --- | --- | --- | --- |
| CC(C)[C@@H](CC[C@@H](C)[C@H]1CC[C@H]2[C@@H]3[C@H](O)C[C@H]4C[C@@H](NCCCNCCCCNCCCN)CC[C@]4(C)[C@H]3CC[C@]12C)OS(=O)(=O)O (single isomer, unassigned) [ENT-02, trodusquemine] | suppressed growth | more severe decline | ~16 | ~45 | about 10% | Neither compound inhibits | > 0.0001 | target | > 0.0001 | > 0.0001 | > 0.0001 | potently inhibit | – | – | – | – | – |
| CC(CCCC(C)C1CCC2C3C(O)CC4CC(NCCCNCCCCNCCCN)CCC4(C)C3CCC12C)C(=O)O (single isomer, unassigned; ent-03) [ENT-03, 3-β-Spermino-7α-hydroxy-5α-cholestanoic acid] | continued normal growth | weight loss | ~16 | ~45 | about 10% | – | > 0.0001 | target | > 0.0001 | > 0.0001 | > 0.0001 | potently inhibit | 5.71e-07 | inactive | inactive | inactive | 36 |
